For one data set, the system named is P. putida KT2440. In words: Growth in the presence of the benzoate substrate analogues 3-FB or 3-CIB. The format is cell-based. The note with it: MM with 10 mM succinate and 1 mM benzoate, increasing concentrations; 3-FB as compared to 3-CIB. As to the method: To determine the optimal concentrations of the substrate analogues, P. putida KT2440 was grown in MM with 10 mM succinate and 1 mM benzoate in the presence of increasing concentrations of 3-FB or 3-CIB. The accumulation of fluorocatechol derivatives is known to result in a violet coloration of the medium. When P. putida KT2440 was exposed to 3-FB or 3-CIB a violet coloration of the medium was observed. […] Therefore, two independent batch cultures of NTG-treated P. putida KT2440 cells were cultivated in the presence of 20 mM 3-FB. Batch culture 1 was grown for 14 hours and batch culture 2 for 24 hours, after which the cultures were plated. Individual colonies were screened for their ability to grow with benzoate as the sole source of carbon and energy. Three mutants that could no longer grow using benzoate were isolated from batch 1 and 84 mutants were isolated from batch 2, which represented 0.1 % and 4.4 %, respectively, of the total amount of colonies that were screened. No mutants were found when the NTG-treated P. putida KT2440 cells were not exposed to 3-FB. All mutants accumulated cis, cis-muconate in the medium when grown with succinate in the presence of benzoate. Therefore, the disability of the further conversion of 2-fluoro-cis, cis-muconate by the muconate lactonizing enzyme seems to have caused the selective advantage. […]

Data set [1] concerns the target T1, catA2 (catechol 1,2-dioxygenase) (Pseudomonas putida, UniProt Q88I35).
T1 sequence (Q88I35 1-304): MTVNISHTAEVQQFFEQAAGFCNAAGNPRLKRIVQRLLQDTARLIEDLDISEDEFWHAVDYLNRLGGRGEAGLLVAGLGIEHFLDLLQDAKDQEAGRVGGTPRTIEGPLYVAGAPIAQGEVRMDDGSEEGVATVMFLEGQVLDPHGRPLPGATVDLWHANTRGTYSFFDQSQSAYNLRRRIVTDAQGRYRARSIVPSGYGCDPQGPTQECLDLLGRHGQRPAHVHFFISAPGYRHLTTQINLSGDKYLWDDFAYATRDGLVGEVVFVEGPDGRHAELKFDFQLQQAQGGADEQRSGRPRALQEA
Briefly: catA2 activity assay: increase in cis, cis-muconate from catechol measured at A256 with purified His-tagged enzyme. The format is biochemical, P. putida KT2440. The source says: (§1) Gene catA2 was amplified from the genome of P. putida KT2440 by PCR using the forward primer 5'- […]-'3 (SEQ ID No. 7) and the reverse primer 5'-[…]-'3 (SEQ ID No. 8) containing a NdeI and XhoI site, respectively. The PCR fragment was ligated into the pET-28a(+) expression vector (Novagen, USA). The catA2 insert was controlled by sequencing after amplification with the T7 and T7 term primer set (Eurofins MWG GmbH, Germany).
(§2) pET-28a(+) with and without the catA2 insert were electro transformed into E. coli BLN21 and plated on LB with kanamycin (50 µg/mL). Transformants containing the plasmid with and without catA2 were grown overnight in 25 mL LB with kanamycin (50 µg/mL) at 37 °C with shaking. […] The purification of CatA2 was monitored with SDS-PAGE and Westernblotting using His-Tag antibodies (Abcam, U. K.).
(§3) The activity of catA2 was assayed by measuring the increase in cis, cis-muconate concentration from catechol in a buffer containing 20 mM Tris-HCl, 0.125 M imidazole (pH 7.8) at A256 using an UV mc2® spectrophotometer (SAFAS, Monaco). In order to determine the km value of the enzyme, the conversion rate of catechol to cis, cis-muconate was measured at 10 different concentrations of catechol ranging between from 0.0001 to 0.05 mM. […] The values for Km, IC50, and Vmax were calculated by Graphpad Prism (Graphpad Software, Inc., USA).

Substrate in data set [2]: Oc1ccccc1O
Described as above. The format is biochemical, P. putida KT2440. The following applies: other: substrate catechol, 0.0001 to 0.05 mM, 20 mM Tris-HCl, 0.125 M imidazole, pH 7.8, 37.0 °C.
From the text: as §1, §2, §3

Here are results for 3 molecules from patent publication EP2562249A1, “Engineered host cells and methods for the production of cis, cis-muconic acid” (Helmholtz-Zentrum für Infektionsforschung GmbH, priority 2011, dated 2013).

As to `O=C(O)c1cccc(F)c1` [3-FB, 3-fluorobenzoate], in the data set on P. putida KT2440, the “Growth of P. putida KT2440” value is given as “more inhibited”.

Consider `O=C(O)/C=C\C=C/C(=O)O` [cis, cis-muconate], for which the IC50 – broadly, the concentration that inhibits the measured activity by half – in data set [1] (at a concentration of 0.05 mM catechol, cis, cis-muconate 0 to 0.2 mM) worked out at 139 µM. In addition, the Ki – broadly, a dissociation constant, usually derived from enzyme kinetics or from competition with a known ligand – in data set [1] (calculated from Km and IC50 using the Cheng-Prusoff equation) is 2.8 µM.

B1: catA2 (catechol 1,2-dioxygenase) (Pseudomonas putida KT2440) (protein)
chain: T1 sequence (Q88I35 1-304)
Consider B1, for which the Km (in general, the substrate concentration at which the rate is half of its maximum) in data set [2] turned out to be 1 µM.
